Experiments:
[1] = test system: relapsed/refractory metastatic urothelial carcinoma (mUC); conditions: pretreated patients with relapsed/refractory mUC; cited from earlier work
[2] = test system: peripheral blood mononuclear cells (PBMC); test: PBMC incubated with Cabozantinib, master regulator transcription factors of CD4+ T-cell polarization (FIGS. 1A and 1B); assay type: cell-based; conditions: PBMCs, 3-4 days, 10% FBS-RPMI, Cabozantinib 10 uM vs DMSO control; three donors
Method: With reference to FIGS. 1A and 1B, peripheral blood mononuclear cells (PBMC) were obtained by centrifugation from buffy coat. PBMCs were incubated for 3-4 days in a 24 well plate with 10% FBS-RPMI medium with DMSO (control) or Cabozantinib (10 uM). Representative data obtained from three different donors were shown. […] Naïve CD4+ T-cells can polarize toward four CD4+ lineages.

[3] = test system: metastatic urothelial carcinoma and other genitourinary malignancies; test: Phase I study of CaboNivo and CaboNivoIpi in patients; assay type: in vivo, human
Source text: This example provides results of a Phase I study of Cabozantinib (Cabo)+Nivolumab (Nivo) and (CaboNivo) Cabo+Nivolumab+Ipilimumab (Ipi) (CaboNivoIpi) in patients with metastatic urothelial carcinoma and other genitourinary malignancies.
The study provides results of a Phase I study of Cabozantinib+Nivolumab and Cabozantinib+Nivolumab+Ipilimumab in patients with metastatic urothelial carcinoma and other genitourinary malignancies. The purpose of the study was to determine the dose limiting toxicity (DLT) and recommended Phase II dose (RP2D) of the combination of CaboNivo and separately the combination of CaboNivolpi. In the study, DLT was defined as any event requiring a patient to discontinue study treatment. The DLT evaluation period was 4 weeks (Part 1) and 6 weeks (Part 2).
Secondary endpoints for the study included overall response rate (ORR) by RECIST v1.1; duration of response; progression free survival (PFS); and overall survival (OS). Exploratory Endpoints included the identification of immune subset biomarkers associated with PD-L1 and MET expression as well as correlation with efficacy.
Key eligibility criteria for the study included: • Histologically confirmed diagnostic of genitourinary (GU) malignancy; • Patients with metastatic GU malignancy who has disease progression on at least one standard therapy or there must be no standard treatment that prolongs survival; • A Karnofsky performance status of greater than or equal to 70 percent; and • One evaluable site of disease or bone disease by NaF PET/CT.

[4] = test system: Treg (CD4+CD25hiFoxp3+) in CD4+ T-cells; test: Treg population in urothelial cancer patients treated with cabozantinib (FIGS. 1, 2); assay type: in vivo, human
Source text: Directly killing the tregs, and 2. Influencing treg polarization. See Apolo, A B, et al., J. Clin. Oncol. 2014; 32s:abstr 4501.
With reference to FIG. 2, it is believed that cabozantinib downregulates regulatory T cell population by acting on T cell polarization via inhibition of transcription factor Foxp3. The biologic rationale for combining cabozantinib and immune checkpoint blockade in mUC can be extrapolated from the results shown in FIGS. 2A and 2B. In FIG. 2A, patients with lower percent Treg (CD4+CD25hiFoxp3+) in CD4+ T-cells (<3.89%=median value) at baseline had better response compared with those who had higher percent Treg at baseline.

[5] = test system: metastatic urothelial carcinoma (mUC); conditions: mUC patients progressed despite prior platinum-containing chemotherapy; cited from earlier work

Molecule | clinical activity [1] | suppression of master regulator transcription factors of CD4+ T-cell polarization [2] | patients with 3 dose reductions ([3]; 2 of the 18 patients with dose reduction) | patients with 2 dose reductions ([3]; 6 of the 18 patients with dose reduction) | patients with 1 dose reduction ([3]; 10 of the 18 patients with dose reduction) | patients with ≥1 dose reduction of cabozantinib ([3]; 18 of 42 patients) | median dose reduction ([3]; number of dose reductions per patient, 18 patients) | percent Treg among CD4+ T-cells ([4]; after treatment with Cabozantinib, FIG. 2B) | Treg population ([4]; urothelial cancer patients, FIG. 1, see Apolo et al. 2014) | clinical activity [5]
COc1cc2nccc(Oc3ccc(NC(=O)C4(C(=O)Nc5ccc(F)cc5)CC4)cc3)c2cc1OC [Cabozantinib, N-(4-(6,7-dimethoxyquinolin-4-yloxy)phenyl)-N′-(4-fluorophenyl)cyclopropane-1,1-dicarboxamide] | clinical activity | suppresses only Foxp3 | 11% | 33% | 56% | 43% | 1 (range 1-3) | decreased significantly | decrease the Treg population | –
Nivolumab: IgG4 anti-PD-1 monoclonal antibody sold under the name OPDIVO | – | – | – | – | – | – | – | – | – | clinical activity
